Data published in US20250326739A1, “CD38 MODULATORS AND USES THEREOF” (Aeovian Pharmaceuticals, Inc., priority 2022, published 2025).
Counter-ions that a name gives are not always drawn.

Experiments:
[1] = target: mouse CD38 (Mus musculus (Mouse), UniProt P56528); test: NAD+ cyclase activity assay with mouse recombinant CD38 protein; type: biochemical; settings: 0.6 nM mouse CD38, 15.8 μM e-NAD substrate, fluorescence read-out
Procedure: (§1) Example 5: NAD^+ Cydase Activity Assay with Human or Mouse Recombinant CD38 Protein
(§2) The following assay was used to determine the ability of compounds of the invention to inhibit the hydrolysis of NAD^+ by the human or mouse enzyme, CD38.
(§3) Reaction buffer: 40 mM HEPES/NaOH pH 7.5, 250 mM sucrose, 0.01% Tween
(§4) Final concentrations: 0.6 nM mouse CD38 (4947-AC, Bio-Techne GmbH) 1.9 nM human CD38 (AVI2404, Bio-Techne GmbH)
(§5) Substrate: 15.8 μM Nicotinamide 1,N6-ethenoadenine dinucleotide (E-NAD)
(§6) Read-out: Fluorescence intensity (extinction 300 nm/emission 410 nm)
(§7) Required reaction buffer, required CD38 concentration in reaction buffer and required e-NAD concentration in reaction buffer were prepared. Thereafter, 8 μL of CD38 in reaction buffer were added to High Control and compound concentration wells in 384 well plate (Corning #4514, 384 well, nonbinding surface, low volume, round bottom) and 8 μL of reaction buffer to Low Control. Compound dilutions were transferred via pintool technology that transfers 42.5 nL compound dilutions (12-point dose-response with factor three dilutions in 100% DMSO) well-to-well. Plate was subsequently shaken for 15 s at 1450 rpm and sealed for incubation for 30 min at room temperature. Thereafter, 2 μL of e-NAD in reaction buffer were added with Integra Voyager. After shaking for 15 s at 1450 rpm, plate was sealed, and assay signal was measured continuously with PHERAstar® fluorescence intensity module (extinction 300 nm/emission 410 nm).
(§8) Dose-response curves were constructed using twelve-point factor three dilutions in triplicates per plate. High control (full enzyme activity) was set to assay signal of CD38 and e-NAD in presence of vehicle (DMSO) and Low control (full enzyme inhibition) was set to assay signal of e-NAD and vehicle (DMSO) in absence of CD38. For data analysis, fluorescent signal of traces corresponding to each compound concentration and High and Low control was monitored over time. Each run, High Control (full enzyme activity) was fitted to Linear equation via GraphPad Prism to determine CD38 activity from the slope and determine the time interval of linear phase of reaction to account for minor fluctuations. Thereafter, slopes of all compound concentrations were determined via fitting to same linear equation (GraphPad Prism) over the same time interval as determined for High control. Percentage inhibition was calculated via normalization to High and Low Control via the equation: %−inhibition=100*(1−((Sample−Low control)/(High control−Low control))) Half maximal inhibitory concentration (IC50) values are yielded from the inflection point of the corresponding curve by fitting of resulting percentage inhibition values to standard equation (4 Parameter Logistic Model or Sigmoidal Dose-Response Model) via Excel Fit. Unless otherwise stated, fitting of curves was fixed to 100%-inhibition and unlocked for 0%-inhibition.

[2] = target: human CD38 (Homo sapiens (Human), UniProt P28907); test: NAD+ cyclase activity assay with human recombinant CD38 protein; type: biochemical; settings: 1.9 nM human CD38, 15.8 μM e-NAD substrate, fluorescence read-out
Procedure: as §1, §2, §3, §4, §5, §6, §7, §8

human CD38, sequence (P28907 whole entry): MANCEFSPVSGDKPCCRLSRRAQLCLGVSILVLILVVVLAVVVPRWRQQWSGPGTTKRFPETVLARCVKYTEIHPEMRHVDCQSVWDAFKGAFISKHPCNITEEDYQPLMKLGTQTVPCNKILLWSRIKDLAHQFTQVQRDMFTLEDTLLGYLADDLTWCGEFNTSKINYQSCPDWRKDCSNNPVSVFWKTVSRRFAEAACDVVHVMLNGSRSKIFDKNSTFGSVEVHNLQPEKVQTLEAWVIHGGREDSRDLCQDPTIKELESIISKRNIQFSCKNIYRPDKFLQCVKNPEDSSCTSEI
mouse CD38, sequence (P56528 whole entry): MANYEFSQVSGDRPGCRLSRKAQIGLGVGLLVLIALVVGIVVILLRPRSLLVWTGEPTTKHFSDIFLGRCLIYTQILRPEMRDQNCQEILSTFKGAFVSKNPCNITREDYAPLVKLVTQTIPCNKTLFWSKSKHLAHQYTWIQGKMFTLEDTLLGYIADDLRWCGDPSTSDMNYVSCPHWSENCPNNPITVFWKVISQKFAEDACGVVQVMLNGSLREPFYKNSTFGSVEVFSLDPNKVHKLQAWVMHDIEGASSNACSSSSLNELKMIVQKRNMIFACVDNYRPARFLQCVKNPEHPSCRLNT

| Compound | IC50 [1] [nM] | IC50 [2] [nM] |
| --- | --- | --- |
| Cc1cc(C(=O)N[C@H]2CCCN(C)C2=O)nc(-n2ccnc2)c1 [Compound 85A, (S)-6-(1H-Imidazol-1-yl)-4-methyl-N-(1-methyl-2-oxopiperidin-3-yl)picolinamide] | 10 to 100 | 100 to 1000 |
| Cc1cc(C(=O)N[C@H]2CCCNC2)nc(-n2ccnc2)c1 [Compound 48A, (S)-6-(1H-Imidazol-1-yl)-4-methyl-N-(piperidin-3-yl)picolinamide dihydrochloride] | 10 to 100 | > 1000 |
| Cc1cc(C(=O)N[C@@H]2CCC(=O)NC2=O)nc(-n2ccnc2)c1 [Compound 63A, (R)—N-(2,6-Dioxopiperidin-3-yl)-6-(1H-imidazol-1-yl)-4-methylpicolinamide] | 10 to 100 | > 1000 |
| Cc1cc(C(=O)N[C@@H]2CCCNC2)nc(-n2ccnc2)c1 [Compound 51A, (R)-6-(1H-Imidazol-1-yl)-4-methyl-N-(piperidin-3-yl)picolinamide dihydrochloride] | > 100 | > 1000 |
| Cc1cc(C(=O)N[C@@H]2CCCN(C)C2=O)nc(-n2ccnc2)c1 [Compound 56A, (R)-6-(1H-Imidazol-1-yl)-4-methyl-N-(1-methyl-2-oxopiperidin-3-yl)picolinamide] | > 100 | > 1000 |
| CS(=O)(=O)N1CCC(NC(=O)c2cccc(-n3ccnc3)n2)CC1 [Compound 16A, 6-(1H-Imidazol-1-yl)-N-(1-(methylsulfonyl)piperidin-4-yl)picolinamide] | 1 to 10 | 30 to 100 |
| Cc1cc(C(=O)NC2CCOCC2(C)C)nc(-n2ccnc2)c1 (centres unmarked) [Compound 27A, N-(3,3-Dimethyltetrahydro-2H-pyran-4-yl)-6-(1H-imidazol-1-yl)-4-methylpicolinamide] | 10 to 100 | 100 to 1000 |
| Cc1cc(C(=O)NC2CCCOC2)nc(-n2ccnc2)c1 (centres unmarked) [Compound 9A, 6-(1H-Imidazol-1-yl)-4-methyl-N-(tetrahydro-2H-pyran-3-yl)picolinamide] | 1 to 10 | < 30 |
| Cc1cc(C(=O)N[C@H]2CCCN(C(=O)OC(C)(C)C)C2)nc(-n2ccnc2)c1 [Compound 47A, tert-Butyl (S)-3-(6-(1H-imidazol-1-yl)-4-methylpicolinamido)piperidine-1-carboxylate] | 1 to 10 | 100 to 1000 |
| Cc1cc(C(=O)NC2CCOC(C)C2)nc(-n2ccnc2)c1 (centres unmarked) [Compound 30A, 6-(1H-Imidazol-1-yl)-4-methyl-N-(2-methyltetrahydro-2H-pyran-4-yl)picolinamide] | 1 to 10 | 30 to 100 |
| Cc1cc(C(=O)N[C@@H]2CCCN(S(C)(=O)=O)C2)nc(-n2ccnc2)c1 [Compound 54A, (R)-6-(1H-Imidazol-1-yl)-4-methyl-N-(1-(methylsulfonyl)piperidin-3-yl)picolinamide] | 1 to 10 | 30 to 100 |
| Cc1cc(C(=O)NC2CCC(C)(C)OC2)nc(-n2ccnc2)c1 (centres unmarked) [Compound 29A, N-(6,6-Dimethyltetrahydro-2H-pyran-3-yl)-6-(1H-imidazol-1-yl)-4-methylpicolinamide] | 1 to 10 | 30 to 100 |
| Cc1cc(C(=O)NC2C3COCC32)nc(-n2ccnc2)c1 (centres unmarked) [Compound 31A, N-(3-Oxabicyclo[3.1.0]hexan-6-yl)-6-(1H-imidazol-1-yl)-4-methylpicolinamide] | 1 to 10 | 30 to 100 |
| Cc1cc(C(=O)NC2CCOCC2)nc(-n2ccnc2)c1 [Compound 32A, 6-(1H-Imidazol-1-yl)-4-methyl-N-(tetrahydro-2H-pyran-4-yl)picolinamide] | 1 to 10 | 30 to 100 |
| O=C(N[C@@H]1CCS(=O)(=O)C1)c1ccnc(-n2ccnc2)n1 [Compound 74A, (R)—N-(1,1-Dioxidotetrahydrothiophen-3-yl)-2-(1H-imidazol-1-yl)pyrimidine-4-carboxamide] | 1 to 10 | < 30 |
| Cc1ccc(-n2ccnc2)nc1C(=O)NC1CCN(S(C)(=O)=O)CC1 [Compound 79A, 6-(1H-Imidazol-1-yl)-3-methyl-N-(1-(methylsulfonyl)piperidin-4-yl)picolinamide] | 10 to 100 | 100 to 1000 |
| O=C(N[C@@H]1CCCOC1)c1ccnc(-n2ccnc2)n1 [Compound 80A, (R)-2-(1H-Imidazol-1-yl)-N-(tetrahydro-2H-pyran-3-yl)pyrimidine-4-carboxamide] | 1 to 10 | < 30 |
| Cc1cc(C(=O)N[C@H]2CCOC2)nc(-n2ccnc2)c1 [Compound 38A, (S)-6-(1H-Imidazol-1-yl)-4-methyl-N-(tetrahydrofuran-3-yl)picolinamide] | 1 to 10 | 100 to 1000 |
| CS(=O)(=O)N1CCC(NC(=O)c2cc(C(F)(F)F)nc(-n3ccnc3)n2)CC1 [Compound 75A, 2-(1H-Imidazol-1-yl)-N-(1-(methylsulfonyl)piperidin-4-yl)-6-(trifluoromethyl)pyrimidine-4-carboxamide] | 1 to 10 | 30 to 100 |
| Cc1cc(C(=O)NC2CCC(F)(F)C2)nc(-n2ccnc2)c1 (centres unmarked) [Compound 35A, N-(3,3-Difluorocyclopentyl)-6-(1H-imidazol-1-yl)-4-methylpicolinamide] | 1 to 10 | < 30 |
| Cc1cc(C(=O)N[C@@H]2CCCS(=O)(=O)C2)nc(-n2ccnc2)c1 [Compound 57A, (R)—N-(1,1-Dioxidotetrahydro-2H-thiopyran-3-yl)-6-(1H-imidazol-1-yl)-4-methylpicolinamide] | 1 to 10 | 30 to 100 |
| Cc1cc(C(=O)NC2CCCS(=O)(=O)C2)nc(-n2ccnc2)c1 (centres unmarked) [Compound 36A, N-(1,1-Dioxidotetrahydro-2H-thiopyran-3-yl)-6-(1H-imidazol-1-yl)-4-methylpicolinamide] | 1 to 10 | 100 to 1000 |

Other lines, results leading:

| IC50 [1] [nM] | IC50 [2] [nM] | Compound |
| --- | --- | --- |
| 1 to 10 | 30 to 100 | Cc1cc(C(=O)N[C@H]2COCCC2(F)F)nc(-n2ccnc2)c1 [Compound 70A, (S)—N-(4,4-Difluorotetrahydro-2H-pyran-3-yl)-6-(1H-imidazol-1-yl)-4-methylpicolinamide] |
| 1 to 10 | 30 to 100 | CC(=O)N1CCC(NC(=O)c2cc(C)cc(-n3ccnc3)n2)CC1 [Compound 10A, N-(1-Acetylpiperidin-4-yl)-6-(1H-imidazol-1-yl)-4-methylpicolinamide] |
| 1 to 10 | 30 to 100 | Cc1cc(C(=O)N[C@@H]2CCCN(C(=O)OC(C)(C)C)C2)nc(-n2ccnc2)c1 [Compound 49A, tert-Butyl (R)-3-(6-(1H-imidazol-1-yl)-4-methylpicolinamido)piperidine-1-carboxylate] |
| 1 to 10 | 30 to 100 | Cc1cc(C(=O)NC2CCN(S(C)(=O)=O)CC2)nc(-n2ccnc2)c1 [Compound 1A, 6-(1H-Imidazol-1-yl)-4-methyl-N-(1-(methylsulfonyl)piperidin-4-yl)picolinamide] |
| 1 to 10 | < 30 | Cc1cc(C(=O)NC2CCN(S(=O)(=O)C3CC3)CC2)nc(-n2ccnc2)c1 [Compound 3A, N-(1-(cyclopropylsulfonyl)piperidin-4-yl)-6-(1H-imidazol-1-yl)-4-methylpicolinamide] |
| 1 to 10 | < 30 | Cc1cc(C(=O)NC2CCN(S(=O)(=O)C3CCCCC3)CC2)nc(-n2ccnc2)c1 [Compound 5A, N-(1-(Cyclohexylsulfonyl)piperidin-4-yl)-6-(1H-imidazol-1-yl)-4-methylpicolinamide] |
| 1 to 10 | < 30 | Cc1cc(C(=O)NC2CCCCCC2)nc(-n2ccnc2)c1 [Compound 34A, N-Cycloheptyl-6-(1H-imidazol-1-yl)-4-methylpicolinamide] |
| 1 to 10 | 100 to 1000 | Cc1cc(C(=O)NC2CCOC(C)(C)C2)nc(-n2ccnc2)c1 (centres unmarked) [Compound 24A, N-(2,2-Dimethyltetrahydro-2H-pyran-4-yl)-6-(1H-imidazol-1-yl)-4-methylpicolinamide] |
| < 1 | 30 to 100 | Cc1cc(C(=O)N[C@@H]2COCCC2(F)F)nc(-n2ccnc2)c1 [Compound 71A, (R)—N-(4,4-Difluorotetrahydro-2H-pyran-3-yl)-6-(1H-imidazol-1-yl)-4-methylpicolinamide] |
